In US20220395500A1, “SMALL MOLECULE ACTIVATORS OF INTERFERON REGULATORY FACTOR 3 AND METHODS OF USE THEREOF” (Neuralexo, Inc., priority 2020, published 2022):
Read-outs that look alike come from different tables or passages of the source.

What was measured:
[1] = system: IP-10 in mBMDMs (wild-type and IRF3 KO); assay: IP-10 induction in mouse bone marrow derived macrophages (ELISA); assay type: cell-based; conditions: increasing concentrations, wild-type vs IRF3 knock-out cells
Protocol: IP-10 levels were determined by mouse CXCL10/IP10 ELISA (Invitrogen, Carlsbad, Calif.) and are expressed as pg/ml. Data represents group mean+/−standard deviation.
IP-10 expression was determined by mouse CXCL10/IP10 ELISA (Invitrogen, Carlsbad, Calif.), and is expressed as pg/ml. Data represents group mean+/−standard deviation.
Target specificity of chemical entities corresponding to the ND and NA chemofamiles was examined by determining dose-dependent expression of IP10, a highly inducible, primary response gene that belongs to the C-X-C chemokine superfamily. […] IP-10 expression was monitored by a mouse CXCL10/IP10 ELISA (Invitrogen, Carlsbad, Calif.), and is expressed at FIG. 20 and FIG. 21 as pg/ml.

[2] = system: IP-10 in human monocyte-derived macrophages; assay: IP-10 induction in human monocyte-derived macrophages (ELISA); assay type: cell-based; conditions: dose response
Description: FIG. 24 is a graph of NA-42 dose dependent IP-10 induction in human monocyte-derived macrophages. IP-10 expression was monitored by Human CXCL10/IP10 ELISA (R&D Systems, Minneapolis, Minn.) and is expressed as pg/ml. Shown are group means+/−standard deviation; ****p<0.0001.
FIG. 25 is a graph of ND-13 dose dependent IP-10 induction in human monocyte-derived macrophages. IP-10 expression was monitored by Human CXCL10/IP10 ELISA (R&D Systems, Minneapolis, Minn.) and is expressed as pg/ml. Shown are group means+/−standard deviation; ****p<0.0001.
As discussed above with regard to Example 19, target specificity of chemical entities corresponding to the ND and NA chemofamilies was examined by dose-dependent expression of IP-10 in mBMDMs. In this example, 23, target specificity of chemical entities corresponding to the ND and NA chemofamiles was examined by determining dose-dependent expression of IP-10 in human primary cells, specifically monocyte-derived macrophages. […] For FIGS. 24-25, IP-10 expression was monitored by Human CXCL10/IP10 ELISA (R&D Systems, Minneapolis, Minn.), and is expressed at FIGS. 24-25 as pg/ml.

[3] = system: IRF-Lucia luciferase reporter (ISRE) in J774-Dual cells; assay: J774-Dual IRF-Lucia luciferase reporter assay (ISRE activation); assay type: cell-based, mouse; conditions: for EC50: read-out: J774 IRF EC50
How it was run: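 Mouse J774-Dual macrophages, seeded in growth medium 24 h at 37 °C, 5% CO2 before treatment; secreted IRF-Lucia (ISRE-driven) and NF-κB-SEAP read with QUANTI-Luc and QUANTI-Blue. EC50 and CC50 from 8-point dose-response, cytotoxicity by CellTiter-Glo; ISRE:NF-κB ratio calculated.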

J774-Dual cells = assay: J774-Dual cytotoxicity; assay type: cell-based, mouse; conditions: Mouse Reporter Cell Line J774; read-out: J774 cytotox CC50
How it was run: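 Orthogonal cross-species screen in mouse J774-Dual cells using 8-point dose-response format. Cytotoxicity measured in-plate by CellTiter-Glo luminescence, giving CC50 alongside EC50 and ISRE:NFκB ratios.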

[4] = Mouse Reporter Cell Line J774, at peak
[5] = Mus musculus, J774, Mouse Reporter Cell Line J774

| Structure (SMILES) | J774 IRF % activation at peak [3, 4] [%] | EC50 [3, 5] [µM] | further results |
| --- | --- | --- | --- |
| CCOc1cccc(COc2ccc(C(=O)Nc3ccc(N4CCN(C(=O)c5cccs5)CC4)cc3)cc2)c1 [NA-42, 4-((3-ethoxybenzyl)oxy)-N-(4-(4-(thiophene-2-carbonyl)piperazin-1-yl)phenyl)benzamide] | – | – | induction of IP-10 in mBMDMs [1]: IRF3 dependent induction; IP-10 induction in human monocyte-derived macrophages [2]: dose-dependent IP-10 induction |
| Cc1ccc(NC(=O)c2cc(NC(=O)c3cccs3)ccc2N2CCOCC2)cc1 [NB-17] | 16.67 | 8.68 | – |
| O=C(Nc1ccc(N2CCOCC2)c(C(=O)Nc2ccc(OCc3ccccc3)cc2)c1)c1cccs1 [NB-18] | 2.303 | ~4.84 | – |
| Cc1ccc(NC(=O)c2cc(NC(=O)c3cccs3)ccc2N2CCOCC2)cc1Br [NB-23] | 72.79 | 6.56 | – |
| Cc1cc(NC(=O)c2sc3cc(Cl)ccc3c2Cl)ccc1NC(=O)c1ccco1 [NC-2] | – | – | J774 IRF % activation at peak ([3]; Mouse Reporter Cell Line): 4.6%; EC50 ([3]; Mus musculus, J774, Mouse Reporter Cell Line, 8-point dose response): 14.6 µM |
| COc1ccc(C(=O)Nc2cc(-c3nc4cc(C)c(C)cc4o3)ccc2C)cc1[N+](=O)[O-] [ND13, N-(5-(5,6-dimethylbenzo[d]oxazol-2-yl)-2-methylphenyl)-4-methoxy-3-nitrobenzamide] | 220.5 | 0.956 | – |
| COc1ccc(C(=O)Nc2cc(-c3nc4ccccc4s3)ccc2C)cc1[N+](=O)[O-] [ND52, N-[5-(1,3-benzothiazol-2-yl)-2-methylphenyl]-4-methoxy-3-nitrobenzamide] | 131.7 | 5.87 | CC50 (J774-Dual cells): 101 µM |
| COc1ccc(C(=O)Nc2nc(-c3cc4ccccc4oc3=O)cs2)cc1 [ND-1] | 28.40 | 8.82 | – |
| COc1ccc(C(=O)Nc2cc(-c3nc4cc(C(C)C)ccc4o3)ccc2C)cc1[N+](=O)[O-] [ND-2] | 141.80 | 4.81 | – |
| CC(C)CC(=O)Nc1ccc2oc(-c3cccc(I)c3)nc2c1 [ND-5] | 12.45 | ~12.9 | – |
| COc1ccc(C(=O)Nc2cc(-c3nc4cc(C)c(C)cc4o3)ccc2C)cc1[N+](=O)[O-] [ND-13, N-(5-(5,6-dimethylbenzo[d]oxazol-2-yl)-2-methylphenyl)-4-methoxy-3-nitrobenzamide] | – | – | induction of IP-10 in mBMDMs [1]: IRF3 dependent induction; IP-10 induction in human monocyte-derived macrophages [2]: dose-dependent IP-10 induction |
| COc1ccc(-c2nc3cc(C(C)C)ccc3o2)cc1NC(=O)c1ccc(C)c([N+](=O)[O-])c1 [ND-16] | 83.02 | 3.58 | – |
| COc1ccc(C(=O)Nc2cc(-c3nc4ccccc4s3)ccc2C)cc1[N+](=O)[O-] [ND-38] | 114 | – | EC50 ([3]; Mouse Reporter Cell Line J774): 7.67 µM; CC50 (J774-Dual cells): > 25 µM |
| Cc1ccc(-c2nc3ccccc3s2)cc1NC(=O)c1cccc(Cl)c1 [ND-80] | 26.88 | ~10.1 | – |
| ClCCCOc1ccc(-c2nc3cc(OCCCN4CCCC4)ccc3o2)cc1 [ND-94] | 5.09 | 4.53 | – |
| COCOc1ccc2oc(-c3ccc(C)c(NC(=O)c4ccc(OC)c([N+](=O)[O-])c4)c3)nc2c1 [ND-95, 4-methoxy-N-(5-(5-(methoxymethoxy)benzo[d]oxazol-2-yl)-2-methylphenyl)-3-nitrobenzamide] | 98.11 | 4.1 | – |
| COCOc1ccc2oc(-c3ccc(C)c([N+](=O)[O-])c3)nc2c1 [ND-96] | 5.389 | 18.9 | – |
